Species: Rattus norvegicus
Experiment: DrugMatrix - Regimen: Daily Repeat
Type: toxicity, organism-based, Sprague-Dawley
Set-up: regimen Daily Repeat, gender Male, age 6-8 weeks
Conditions: in vivo, iv, vehicle 100 % SALINE; for ABSOLUTE BASOPHIL / ABSOLUTE EOSINOPHIL / ABSOLUTE LYMPHOCYTE / ABSOLUTE MONOCYTE / ABSOLUTE SEGMENTED NEUTROPHIL / BASOPHIL / EOSINOPHIL / ERYTHROCYTE COUNT / HEMATOCRIT / HEMOGLOBIN / LEUKOCYTE COUNT / LYMPHOCYTE / MEAN CORPUSCULAR HEMOGLOBIN / MEAN CORPUSCULAR HEMOGLOBIN CONCENTRATION / MEAN CORPUSCULAR VOLUME / MONOCYTE / NEUTROPHIL / NUCLEATED RED BLOOD CELLS / PLATELET COUNT: tissue Blood; for ALANINE AMINOTRANSFERASE / ALBUMIN / ALKALINE PHOSPHATASE / ASPARTATE AMINOTRANSFERASE / BLOOD UREA NITROGEN / CARBON DIOXIDE / CHLORIDE / CHOLESTEROL / CREATINE PHOSPHOKINASE / CREATININE / GLUCOSE / LACTATE DEHYDROGENASE / LIPASE / PHOSPHORUS / POTASSIUM / SODIUM / TOTAL BILIRUBIN / TOTAL PROTEIN / URIC ACID: tissue Plasma
[1] = 100 mg/kg, 72 h, dose level Low, time 3 day
[2] = 100 mg/kg, 120 h, dose level Low, time 5 day
[3] = 1000 mg/kg, 72 h, dose level High, time 3 day
[4] = 1000 mg/kg, 120 h, dose level High, time 5 day

OC[C@@H](O)[C@@H](O)[C@H](O)[C@H](O)CO [MANNITOL]
ABSOLUTE BASOPHIL [1]: 0 CELLS/uL
ABSOLUTE EOSINOPHIL [1]: 269 CELLS/uL
ABSOLUTE LYMPHOCYTE [1]: 11772.67 CELLS/uL
ABSOLUTE MONOCYTE [1]: 286.33 CELLS/uL
ABSOLUTE SEGMENTED NEUTROPHIL [1]: 638.67 CELLS/uL
BASOPHIL [1]: 0%
EOSINOPHIL [1]: 2%
ERYTHROCYTE COUNT [1]: 5.91 x10E6/uL
HEMATOCRIT [1]: 37.23%
HEMOGLOBIN [1]: 13.83 G/DL
LEUKOCYTE COUNT [1]: 12.97 x10E3/uL
LYMPHOCYTE [1]: 90.67%
MEAN CORPUSCULAR HEMOGLOBIN [1]: 23.43 pg
MEAN CORPUSCULAR HEMOGLOBIN CONCENTRATION [1]: 37.1 G/DL
MEAN CORPUSCULAR VOLUME [1]: 62.97 fL
MONOCYTE [1]: 2.33%
NEUTROPHIL [1]: 5%
NUCLEATED RED BLOOD CELLS [1]: 0 /100WBC
PLATELET COUNT [1]: 1250.33 x10E3/uL
ALANINE AMINOTRANSFERASE [1]: 48.67 u/L
ALBUMIN [1]: 4.13 G/DL
ALKALINE PHOSPHATASE [1]: 350 u/L
ASPARTATE AMINOTRANSFERASE [1]: 97.33 u/L
BLOOD UREA NITROGEN [1]: 16.33 mg/dL
CARBON DIOXIDE [1]: 24.67 mmol/L
CHLORIDE [1]: 104 MEQ/L
CHOLESTEROL [1]: 77.67 mg/dL
CREATINE PHOSPHOKINASE [1]: 393.67 u/L
CREATININE [1]: 0.2 mg/dL
GLUCOSE [1]: 160.33 mg/dL
LACTATE DEHYDROGENASE [1]: 480.67 u/L
LIPASE [1]: 8.67 u/L
PHOSPHORUS [1]: 13.8 mg/dL
POTASSIUM [1]: 6.9 MEQ/L
SODIUM [1]: 146.1 MEQ/L
TOTAL BILIRUBIN [1]: 0.2 mg/dL
TOTAL PROTEIN [1]: 5.93 G/DL
URIC ACID [1]: 1.7 mg/dL
ABSOLUTE BASOPHIL [2]: 0 CELLS/uL
ABSOLUTE EOSINOPHIL [2]: 0 CELLS/uL
ABSOLUTE LYMPHOCYTE [2]: 12262.33 CELLS/uL
ABSOLUTE MONOCYTE [2]: 402.33 CELLS/uL
ABSOLUTE SEGMENTED NEUTROPHIL [2]: 1202 CELLS/uL
BASOPHIL [2]: 0%
EOSINOPHIL [2]: 0%
ERYTHROCYTE COUNT [2]: 5.62 x10E6/uL
HEMATOCRIT [2]: 34.87%
HEMOGLOBIN [2]: 12.8 G/DL
LEUKOCYTE COUNT [2]: 13.87 x10E3/uL
LYMPHOCYTE [2]: 88.33%
MEAN CORPUSCULAR HEMOGLOBIN [2]: 22.77 pg
MEAN CORPUSCULAR HEMOGLOBIN CONCENTRATION [2]: 36.73 G/DL
MEAN CORPUSCULAR VOLUME [2]: 62 fL
MONOCYTE [2]: 3%
NEUTROPHIL [2]: 8.67%
NUCLEATED RED BLOOD CELLS [2]: 0 /100WBC
PLATELET COUNT [2]: 1182.33 x10E3/uL
ALANINE AMINOTRANSFERASE [2]: 73.33 u/L
ALBUMIN [2]: 4.27 G/DL
ALKALINE PHOSPHATASE [2]: 396 u/L
ASPARTATE AMINOTRANSFERASE [2]: 130.33 u/L
BLOOD UREA NITROGEN [2]: 17.67 mg/dL
CARBON DIOXIDE [2]: 21.67 mmol/L
CHLORIDE [2]: 110.67 MEQ/L
CHOLESTEROL [2]: 83 mg/dL
CREATINE PHOSPHOKINASE [2]: 1094.67 u/L
CREATININE [2]: 0.15 mg/dL
GLUCOSE [2]: 196.33 mg/dL
LACTATE DEHYDROGENASE [2]: 396.67 u/L
LIPASE [2]: 9.67 u/L
PHOSPHORUS [2]: 14.1 mg/dL
POTASSIUM [2]: 6.09 MEQ/L
SODIUM [2]: 148.6 MEQ/L
TOTAL BILIRUBIN [2]: 0.13 mg/dL
TOTAL PROTEIN [2]: 5.73 G/DL
URIC ACID [2]: 2.53 mg/dL
ABSOLUTE BASOPHIL [3]: 0 CELLS/uL
ABSOLUTE EOSINOPHIL [3]: 168 CELLS/uL
ABSOLUTE LYMPHOCYTE [3]: 12528 CELLS/uL
ABSOLUTE MONOCYTE [3]: 421 CELLS/uL
ABSOLUTE SEGMENTED NEUTROPHIL [3]: 916.33 CELLS/uL
BASOPHIL [3]: 0%
EOSINOPHIL [3]: 1.33%
ERYTHROCYTE COUNT [3]: 5.26 x10E6/uL
HEMATOCRIT [3]: 34.8%
HEMOGLOBIN [3]: 13.1 G/DL
LEUKOCYTE COUNT [3]: 14.03 x10E3/uL
LYMPHOCYTE [3]: 89%
MEAN CORPUSCULAR HEMOGLOBIN [3]: 24.9 pg
MEAN CORPUSCULAR HEMOGLOBIN CONCENTRATION [3]: 37.7 G/DL
MEAN CORPUSCULAR VOLUME [3]: 66.13 fL
MONOCYTE [3]: 3%
NEUTROPHIL [3]: 6.67%
NUCLEATED RED BLOOD CELLS [3]: 0 /100WBC
PLATELET COUNT [3]: 1218.33 x10E3/uL
ALANINE AMINOTRANSFERASE [3]: 45 u/L
ALBUMIN [3]: 4.1 G/DL
ALKALINE PHOSPHATASE [3]: 339.33 u/L
ASPARTATE AMINOTRANSFERASE [3]: 74.33 u/L
BLOOD UREA NITROGEN [3]: 14.67 mg/dL
CARBON DIOXIDE [3]: 21.67 mmol/L
CHLORIDE [3]: 105 MEQ/L
CHOLESTEROL [3]: 68.33 mg/dL
CREATINE PHOSPHOKINASE [3]: 402.67 u/L
CREATININE [3]: 0.13 mg/dL
GLUCOSE [3]: 181.67 mg/dL
LACTATE DEHYDROGENASE [3]: 239.67 u/L
LIPASE [3]: 9.33 u/L
PHOSPHORUS [3]: 14.13 mg/dL
POTASSIUM [3]: 6.11 MEQ/L
SODIUM [3]: 145 MEQ/L
TOTAL BILIRUBIN [3]: 0.23 mg/dL
TOTAL PROTEIN [3]: 5.93 G/DL
URIC ACID [3]: 1.77 mg/dL
ABSOLUTE BASOPHIL [4]: 0 CELLS/uL
ABSOLUTE EOSINOPHIL [4]: 45 CELLS/uL
ABSOLUTE LYMPHOCYTE [4]: 12203.33 CELLS/uL
ABSOLUTE MONOCYTE [4]: 139 CELLS/uL
ABSOLUTE SEGMENTED NEUTROPHIL [4]: 779.33 CELLS/uL
BASOPHIL [4]: 0%
EOSINOPHIL [4]: 0.33%
ERYTHROCYTE COUNT [4]: 5.59 x10E6/uL
HEMATOCRIT [4]: 35.07%
HEMOGLOBIN [4]: 13.4 G/DL
LEUKOCYTE COUNT [4]: 13.17 x10E3/uL
LYMPHOCYTE [4]: 92.67%
MEAN CORPUSCULAR HEMOGLOBIN [4]: 23.97 pg
MEAN CORPUSCULAR HEMOGLOBIN CONCENTRATION [4]: 38.27 G/DL
MEAN CORPUSCULAR VOLUME [4]: 62.67 fL
MONOCYTE [4]: 1%
NEUTROPHIL [4]: 6%
NUCLEATED RED BLOOD CELLS [4]: 0 /100WBC
PLATELET COUNT [4]: 1310 x10E3/uL
ALANINE AMINOTRANSFERASE [4]: 39 u/L
ALBUMIN [4]: 4.3 G/DL
ALKALINE PHOSPHATASE [4]: 331.67 u/L
ASPARTATE AMINOTRANSFERASE [4]: 64.67 u/L
BLOOD UREA NITROGEN [4]: 17.33 mg/dL
CARBON DIOXIDE [4]: 25.67 mmol/L
CHLORIDE [4]: 109.67 MEQ/L
CHOLESTEROL [4]: 67.67 mg/dL
CREATINE PHOSPHOKINASE [4]: 165.33 u/L
CREATININE [4]: 0.19 mg/dL
GLUCOSE [4]: 172.33 mg/dL
LACTATE DEHYDROGENASE [4]: 106.33 u/L
LIPASE [4]: 8.67 u/L
PHOSPHORUS [4]: 12.67 mg/dL
POTASSIUM [4]: 6.4 MEQ/L
SODIUM [4]: 148.93 MEQ/L
TOTAL BILIRUBIN [4]: 0.2 mg/dL
TOTAL PROTEIN [4]: 6.3 G/DL
URIC ACID [4]: 1.67 mg/dL
